Laboratory results reported in patent US6166000A, “Methods for preparation and use of 1α,24(S)-Dihydroxy vitamin . D.sub2” (priority 1995, dated 2000).
Like-named read-outs stand apart in the source and are kept apart here. Values belong to the molecule of their own block, whether it stands above or below them.

What was measured:
vitamin D receptor (VDR) = biological target: T1, vitamin D receptor (VDR) (Homo sapiens, UniProt P11473); assay: Vitamin D-dependent transcriptional activation: growth hormone production in COS-1 cells co-transfected with VDR plasmid and VDRE-GH plasmid; format: cell-based; settings: for Total GH Production: averages of duplicate determinations
T1 sequence (P11473 1-427): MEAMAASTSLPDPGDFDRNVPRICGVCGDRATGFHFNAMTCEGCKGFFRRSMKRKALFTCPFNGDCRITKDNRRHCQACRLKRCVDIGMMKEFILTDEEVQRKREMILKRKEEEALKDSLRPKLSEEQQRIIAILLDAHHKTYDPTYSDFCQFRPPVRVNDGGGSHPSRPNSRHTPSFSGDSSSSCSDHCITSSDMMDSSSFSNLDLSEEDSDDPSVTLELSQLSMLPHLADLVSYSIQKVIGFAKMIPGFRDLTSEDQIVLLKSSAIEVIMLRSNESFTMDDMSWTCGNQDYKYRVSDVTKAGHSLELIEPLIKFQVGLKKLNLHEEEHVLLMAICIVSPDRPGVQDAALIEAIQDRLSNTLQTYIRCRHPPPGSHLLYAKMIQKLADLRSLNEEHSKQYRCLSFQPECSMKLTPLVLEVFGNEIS
Protocol: The biological activity in vitro of chemically synthesized 1α,24(S)-(OH)2 D2 and 1α,24(R)-(OH)2 D2 was measured using a vitamin D-dependent transcriptional activation model system in which a vitamin D receptor (VDR)-expressing plasmid pSG5-hVDR1/3and a plasmid p(CT4)^4 TKGH containing a Growth Hormone (GH)-gene, under the control of a vitamin D-responsive element (VDRE) were co-transfected into Green monkey kidney, COS-1 cells. DNA's for these two vectors were supplied by Dr. Mark Haussler, Department of Biochemistry, University of Arizona, Tucson, Ariz.
Tranfected cells were incubated with vitamin D metabolites and growth hormone production was measured.

[1] = system: 1,25-(OH)2 D3 receptor site; settings: Ishizuka et al., Steroids 1981, 1982; cited from earlier work
Hep 3B cells = assay: Metabolite production in Hep 3B cells incubated with 1α-OH-D2; format: in vitro ADME, human; settings: Experiment 2; substrate 1α-OH-D2 10 μM; photodiode array spectrophotometry
Protocol: Substantially pure 1α-(OH)D2 was obtained from Bone Care International, Inc. of Madison, Wis. The 1α-(OH)D2 was cultured for 48 hours with cells derived from a human hepatoma, Hep 3B, in medium devoid of fetal calf serum using known methods in the art.
Lipid extracts of the combined medium and cells were generated by known methods in the art and were subjected to high pressure liquid chromatography (HPLC) on Zorbax-S1L developed with hexane/isopropanol/methanol (91:7:2). The putative 1α,24(?)-(OH)2 D2 metabolite eluted between the parent 1α-(OH)D2 and standard 1α,25-(OH)2 D2 (also obtained from Bone Care International, Inc. of Madison, Wis.). (As used herein, the term "1α,24(?)-(OH)2 D2 " is meant to indicate that the epimeric form has not been identified.) The 1α,24(?)-(OH)2 D2 was further purified by this HPLC system before the metabolite's identification was undertaken using mass spectrometry analysis.
Hep 3B cells were incubated with 1α-OH-D2, as described above, at final concentrations of 1, 10, or 100 nM (Experiment 1), and 1 or 10 μM (Experiment 2) and 1α,24(S)-(OH)2 D2 was extracted and purified. The 1α,24(S)-(OH)2 D2 and 1α,25-(OH)2 D2 metabolites were quantitated by recovered radiolabel (Experiment 1) or by photodiode array spectrophotometry (Experiment 2).

[2] = system: human osteoporotic patients; settings: dosages of 2.0 μg/day or higher; cited from earlier work
[3] = format: in vivo, rat
Protocol: Vitamin D2 or 24-OH-D2 was administered (either oral or intraperitoneal supplementation) to vitamin D-deficient rats. Lipid extracts of the plasma were prepared and the metabolites purified by the method of Horst et al. (Horst, R. L., Koszewski, N. J. and Reinhardt, T. A., Biochem., 29:578-82 (1990)) described below for synthesyzing standard biological 1α,24-(OH)2 D2.
Standard biological 1α,24-(OH)2 D2 was synthesized in vitro from 24-OH-D2 by incubating 10 μg of 24-OH-D2 in flask containing 5 ml of 20% kidney homogenates made from vitamin D-deficient chicks. The product of this reaction was isolated by HPLC and identified by mass spectrometry.

[4] = oral or intraperitoneal supplementation, vitamin D-deficient rats, HPLC

Total GH Production (vitamin D receptor (VDR); inducer 10^-7 molar): 1300 ng/mL
Total GH Production (vitamin D receptor (VDR); inducer 10^-8 molar): 1100 ng/mL
Net vitamin D-inducible GH-production (vitamin D receptor (VDR); inducer 10^-9 molar): 36 ng/mL
Total GH Production (vitamin D receptor (VDR); inducer 10^-9 molar): 80 ng/mL
Compound: C=C1/C(=C\C=C2/CCC[C@]3(C)[C@@H]([C@H](C)/C=C/[C@](C)(O)C(C)C)CC[C@@H]23)C[C@@H](O)C[C@@H]1O [1α,24(R)-(OH)2 D2, 1α,24(R)-dihydroxy vitamin D2]

Compound: C=C1/C(=C\C=C2/CCC[C@]3(C)[C@@H]([C@H](C)CC[C@@H](O)C(C)C)CC[C@@H]23)C[C@@H](O)C[C@@H]1O [1α,24(R)-(OH)2 D3, 1α,24(R)-dihydroxyvitamin D3]
binding to the 1,25-(OH)2 D3 receptor site compared with 1,25-(OH)2 D3 [1]: more tightly than does 1,25-(OH)2 D3 itself

Rate of Production (Hep 3B cells): 7.4 pmol per 10^6 cells/day
Compound: C=C1/C(=C\C=C2/CCC[C@]3(C)[C@@H]([C@H](C)/C=C/[C@H](C)C(C)(C)O)CC[C@@H]23)C[C@@H](O)C[C@@H]1O [1α,25-(OH)2 D2, 1α,25-dihydroxy vitamin D2, reference compound]

Compound: C=C1/C(=C\C=C2/CCC[C@]3(C)[C@@H]([C@H](C)/C=C/[C@H](C)C(C)C)CC[C@@H]23)C[C@@H](O)C[C@@H]1O [1α-(OH)D2, 1α-hydroxy vitamin D2]
loss of bone mass [2]: will reverse the loss of bone mass

Compound: C=C1CC[C@H](O)C/C1=C/C=C1\CCC[C@]2(C)[C@@H]([C@H](C)/C=C/C(C)(O)C(C)C)CC[C@@H]12 (some centres unmarked) [24-OH-D2, 24-hydroxyvitamin D2]
metabolite found in lipid extracts of plasma ([3]; rat, in vivo): one metabolite isolated co-migrated on HPLC with the standard 1α,24-(OH)2 D2

Total GH Production (vitamin D receptor (VDR); inducer 10^-6 molar): 1100 ng/mL
Compound: C=C1CC[C@H](O)C/C1=C/C=C1\CCC[C@]2(C)[C@@H]([C@H](C)CCCC(C)(C)O)CC[C@@H]12 [25-OH-D3, 25-hydroxy vitamin D3, reference compound]

Compound: C=C1CC[C@H](O)C/C1=C/C=C1\CCC[C@]2(C)[C@@H]([C@H](C)/C=C/[C@H](C)C(C)C)CC[C@@H]12 [vitamin D2, Vitamin D2]
metabolite found in lipid extracts of plasma [3, 4]: one metabolite isolated co-migrated on HPLC with the standard 1α,24-(OH)2 D2

Compound: C=C1CC[C@H](O)C/C1=C/C=C1\CCC[C@]2(C)[C@@H]([C@H](C)CCCC(C)C)CC[C@@H]12 [vitamin D3]
metabolite found in lipid extracts of plasma [3, 4]: no detectable 24-OH-D3
